# Laboratory results published in article PMC12502323, “Discovery of small molecules with anthelmintic potential in the Medicines for Malaria Venture’s COVID and Global Health Priority Boxes using an infrared-based assay for Caenorhabditis elegans motility” (BMC Research Notes, 2025).
# Test system: Caenorhabditis elegans
# Assay: Concentration response C. elegans L4 motility assay (WMicroTracker ONE), EC50
# Assay type: cell-based, Caenorhabditis elegans (Bristol N2)
# Details: Caenorhabditis elegans, 1 h, read-out: EC50 (motility)
# Method: (§1) Methods to cultivate C. elegans (Bristol N2) and synchronize growth to the L4 stage were as described. WMicroTracker ONE (Phylumtech, Argentina) detects movement by measuring the scattering of infrared light beams that are projected into each well of a microtiter plate (two 880 nm beams/well in a 96w plate).
# (§2) Synchronized C. elegans L4 were detached from agar and collected in M9 buffer. Worms were centrifuged for 1 min at 1,900 g and washed in S medium to decrease the concentration of E. coli OP50 that might interfere with infrared detection. Control and assay compounds (1 µL) in DMSO (Fisher Scientific, Cat# BP231-100) were spotted into each well of a clear, flat-bottomed 96-well polystyrene plate (Fisherbrand, Cat# FB012931). DMSO (1%) was used as the negative control. Approximately 70 L4 in 100 µL S medium were added per well. First pass screens employed 40 µM compound, and motility was measured every 20 min for 24 h in the WMicroTracker ONE reader in which the temperature was 25 ± 1 °C. Motility was normalized relative to the DMSO controls. Hits were defined as compounds that decreased motility to ≤ 25% of that in DMSO control worms.
# For potent compounds, concentration response assays (nine concentrations: 0.005 µM to 40 or 100 µM) were conducted to measure the half-maximal effective concentration (EC50). Compounds were serially diluted in DMSO using 96-well, v-bottomed polypropylene dilution plates (ThermoFisher Scientific, Cat#: 249944) and 1 µL aliquots spotted into each well of the assay plates. Motility was measured as described above. Prism GraphPad, Version 8.0 (GraphPad Software, San Diego, CA) was used to calculate EC50 values using a non-linear sigmoidal four parameter logistic curve.
row,Compound,EC50
1,"CO/N=C1\C[C@]2(C[C@@H]3C[C@@H](C/C=C(\C)C[C@@H](C)/C=C/C=C4\CO[C@@H]5[C@H](O)C(C)=C[C@@H](C(=O)O3)[C@]45O)O2)O[C@H](/C(C)=C/C(C)C)[C@H]1C [moxidectin, reference compound]",0.128 ± 0.045 µM

# Test system: Caenorhabditis elegans
# Assay: Primary screen, infrared-based (WMicroTracker ONE) C. elegans L4 motility assay at 40 µM
# Assay type: cell-based, Caenorhabditis elegans (Bristol N2)
# Details: primary screen at 40 µM, C. elegans L4
# Method: as §1, §2
row,Compound,C. elegans Mean motility vs. DMSO control (%)
1,C[C@@H](c1nc(-c2ccc(C#N)cc2)cs1)[C@](O)(Cn1cncn1)c1ccc(F)cc1F [MMV1634362],84.55%
2,Cc1ncc([N+](=O)[O-])n1CC(C)O (stereo not shown) [MMV002287],78.09%
3,O=C(Nc1cnc2ccccc2c1)c1ccccc1C(=O)c1ccc(F)cc1 [MMV1760745],93.6%
4,CC(C)(C)NC(=O)N[C@H](C(=O)N1C[C@H]2[C@@H]([C@H]1C(=O)NC(CC1CCC1)C(=O)C(N)=O)C2(C)C)C(C)(C)C (stereo partly shown) [MMV1580497],86.33%
5,abamectin [reference compound],3.6%
6,CCCOc1ccc(C(F)(F)F)cc1NC(=O)c1nc2nccc(C)n2n1 [MMV1262756],25.74%
7,Oc1ccccc1CCN[C@H]1CCc2ccc(F)cc21 [MMV1726212],87.88%
8,O=C(Nc1ncccc1O)c1ccc(Cn2cccn2)cc1 [MMV1266067],85.15%
9,"CO[C@H]1C[C@H](O[C@H]2[C@H](C)O[C@@H](O[C@@H]3/C(C)=C/C[C@@H]4C[C@@H](C[C@]5(C=C[C@H](C)[C@@H](C6CCCCC6)O5)O4)OC(=O)[C@@H]4C=C(C)[C@@H](O)[C@H]5OC/C(=C\C=C\[C@@H]3C)[C@]54O)C[C@@H]2OC)O[C@@H](C)[C@@H]1O [doramectin, reference compound]",6.74%
10,c1ccc(-c2ccnc(C3CCN(CC45CNCC4C5)CC3)n2)cc1 (stereo not shown) [MMV1797658],81.14%
11,O[C@@H](c1cc(C(F)(F)F)nc2c(C(F)(F)F)cccc12)[C@H]1CCCCN1 [MMV000014],88.32%
12,"CO/N=C1\C[C@]2(C[C@@H]3C[C@@H](C/C=C(\C)C[C@@H](C)/C=C/C=C4\CO[C@@H]5[C@H](O)C(C)=C[C@@H](C(=O)O3)[C@]45O)O2)O[C@H](/C(C)=C/C(C)C)[C@H]1C [moxidectin, reference compound]",0.28%
13,CCn1cnc2c(N3CCC[C@H](c4ccncc4)C3)ncnc21 [MMV1752548],78.79%
14,COc1cc2c3cc1Oc1c(OC)c(OC)cc4c1C(Cc1ccc(O)c(c1)Oc1ccc(cc1)CC3N(C)CC2)N(C)CC4.Cl (stereo not shown) [MMV007474],94.2%
15,milbemectin [reference compound],1.69%
16,Cn1cc(CN2CCc3c(c(C(=O)NCc4nccs4)nn3Cc3ccccc3)C2)c2ccccc21 [MMV1167451],84.51%
17,O=C(NC1CCCc2c1[nH]c1ccc(Cl)cc21)c1ccccn1 (stereo not shown) [MMV690621],85.65%
18,O=C(Nc1ncccc1O)c1ccc(S(=O)(=O)NCCc2cccs2)cc1 [MMV1435700],75.25%
19,eprinomectin [reference compound],13.19%
20,CCCCc1oc2ccccc2c1C(=O)c1cc(I)c(OCCN(CC)CC)c(I)c1 [MMV001992],67.16%
21,CC[C@@H]([C@H](C)O)n1ncn(-c2ccc(N3CCN(c4ccc(OC[C@@H]5CO[C@@](Cn6cncn6)(c6ccc(F)cc6F)C5)cc4)CC3)cc2)c1=O [MMV688774],86.8%
22,C[C@H](Cn1cnc2c(N)ncnc21)OCP(=O)(O)O [MMV1580478],95.45%
23,Cn1ccnc1SCC(=O)Nc1ccc(C(=O)Nc2ncccc2O)cc1 [MMV1267536],64.36%
24,CC(C)Oc1ccc(-c2nc(-c3cccc4c3CC[C@@H]4NCCO)no2)cc1C#N [MMV1580492],83.52%
25,Cc1onc(-c2ccccc2)c1-c1ccc(S(N)(=O)=O)cc1 [MMV002260],95.37%

# Same assay, conditions: primary screen at 40 µM, C. elegans L4, WMicroTracker ONE
row,Compound,C. elegans Mean motility vs. DMSO control (%)
1,CCC(C)n1ncn(-c2ccc(N3CCN(c4ccc(OCC5COC(Cn6cncn6)(c6ccc(Cl)cc6Cl)O5)cc4)CC3)cc2)c1=O (stereo not shown) [MMV637528],97.65%
2,CCC1=C(c2ccc(C)cc2)S(=O)(=O)N=C1N1CCC(C(=O)NCCN2CCCC[C@@H]2C)CC1 [MMV1704710],104.04%
3,NS(=O)(=O)c1cc2c(cc1Cl)N=CNS2(=O)=O [MMV001901],96.35%
4,COc1ccc(Cc2nccc3cc(OC)c(OC)cc23)cc1OC [MMV002798],96.9%
5,OC(Cn1cncn1)(Cn1cncn1)c1ccc(F)cc1F [MMV002337],103.8%
6,Cc1ccc(NC(=O)c2ccc(CN3CCN(C)CC3)cc2)cc1Nc1nccc(-c2cccnc2)n1 [MMV009948],98.37%
7,O[C@@H](c1cc(C(F)(F)F)nc2c(C(F)(F)F)cccc12)[C@H]1CCCCN1 [MMV000016],108.37%
8,CC(=O)N1CCN(c2ccc(OC[C@@H]3CO[C@@](Cn4ccnc4)(c4ccc(Cl)cc4Cl)O3)cc2)CC1 [MMV637533],113.2%
9,O=C(NC1CCN(CCOc2ccc(Cl)cc2)CC1)c1c[nH]c2ccncc2c1=O [MMV1798946],99.33%
10,CNCc1[cH-]ccc1CNc1ccnc2cc(Cl)ccc12.[Fe+2].c1cc[cH-]c1 [MMV892669],102.88%
11,CC(C)(C)NC(=O)[C@@H]1CN(Cc2cccnc2)CCN1C[C@@H](O)C[C@@H](Cc1ccccc1)C(=O)N[C@H]1c2ccccc2C[C@H]1O [MMV659198],103.91%
12,CC(C)C[C@H](NC(=O)[C@@H](NC(=O)c1cccc(-c2ccccc2)n1)[C@@H](C)O)B(O)O [MMV690548],97.97%
13,CC(=O)Oc1ccccc1C(=O)Nc1ncc([N+](=O)[O-])s1 [MMV688991],112.67%
14,O=C(Nc1ncccc1O)c1ccc(N2CCOCC2)nc1 [MMV1103183],99.33%
15,CO[C@@H](C(=O)N1Cc2[nH]nc(NC(=O)c3ccc(N4CCN(C)CC4)cc3)c2C1)c1ccccc1 [MMV676600],100.25%
16,CN1CCCC1CCO[C@](C)(c1ccccc1)c1ccc(Cl)cc1 (stereo partly shown) [MMV637229],98.88%
17,CC[C@@H](C(=O)[C@@H](C)[C@@H](O)[C@H](C)[C@@H]1O[C@@H]([C@@H](CC)C(=O)O)CC[C@@H]1C)[C@H]1O[C@]2(C=C[C@@H](O)[C@]3(CC[C@@](C)([C@H]4CC[C@](O)(CC)[C@H](C)O4)O3)O2)[C@H](C)C[C@@H]1C [MMV1804312],96.95%

# Same assay, conditions: primary screen at 40 µM; hit if motility < 25%
row,Compound,C. elegans NOTES (HIT)
1,abamectin [reference compound],HIT
2,"CO[C@H]1C[C@H](O[C@H]2[C@H](C)O[C@@H](O[C@@H]3/C(C)=C/C[C@@H]4C[C@@H](C[C@]5(C=C[C@H](C)[C@@H](C6CCCCC6)O5)O4)OC(=O)[C@@H]4C=C(C)[C@@H](O)[C@H]5OC/C(=C\C=C\[C@@H]3C)[C@]54O)C[C@@H]2OC)O[C@@H](C)[C@@H]1O [doramectin, reference compound]",HIT
3,"CO/N=C1\C[C@]2(C[C@@H]3C[C@@H](C/C=C(\C)C[C@@H](C)/C=C/C=C4\CO[C@@H]5[C@H](O)C(C)=C[C@@H](C(=O)O3)[C@]45O)O2)O[C@H](/C(C)=C/C(C)C)[C@H]1C [moxidectin, reference compound]",HIT
4,milbemectin [reference compound],HIT
5,eprinomectin [reference compound],HIT

# Test system: not listed separately
# Assay: HEK293 cytotoxicity assay (resazurin)
# Assay type: cell-based, Human
# Details: human
# Method: Potent compounds were also evaluated for cytotoxicity against HEK293 cells. Cells were cultured at 37 °C and 5% in Dulbecco’s Modified Eagle Medium (DMEM; Gibco, Cat#: 11965-092) containing 10% heat-inactivated fetal bovine serum (FBS; Omega Scientific Inc., Cat#: FB02) and 1% penicillin-streptomycin (ThermoFisher Scientific, Cat#: 15140122), and then sub-cultured when 60–80% confluent. Cells were detached with 0.05% trypsin/EDTA (ThermoFisher Scientific, Cat#: 25300054) and centrifuged for 5 min at 1,900 g.
# Screens were performed over 11 compound concentrations (0.00007–40 µM) that had been prepared in DMSO. Aliquots (1 µL) were spotted into each well of a clear-bottomed, 96-well, polystyrene assay plate (Fisher Scientific, Cat#: FB012931). Approximately 20,000 HEK293 cells in 99 µL of the above supplemented DMEM were then added to each well. After 46 h at 37 °C and 5% CO2, 20 µL 0.5 mM resazurin (ThermoFisher Scientific, Cat#: B21187.03) were added and the incubation continued for 2 h at 37 °C [27]. Fluorescence was measured in a 2104 EnVision Multilabel Plate Reader (PerkinElmer) at 560 and 590 nm excitation and emission wavelengths, respectively. Raw data were exported from the EnVision Workstation software (version 1.13.3009.1401; PerkinElmer) into Prism GraphPad, and the half-maximal cytotoxic concentration (CC50) values were calculated using a non-linear regression curve.
row,Compound,CC50 at 48 h
1,"CO/N=C1\C[C@]2(C[C@@H]3C[C@@H](C/C=C(\C)C[C@@H](C)/C=C/C=C4\CO[C@@H]5[C@H](O)C(C)=C[C@@H](C(=O)O3)[C@]45O)O2)O[C@H](/C(C)=C/C(C)C)[C@H]1C [moxidectin, reference compound]",13.3 ± 9.47 µM
